Data set [1] concerns Bacillus subtilis ATCC 11774. Kind of data set: Paper disc diffusion, zone of inhibition. The format is cell-based. The following applies: Bacillus subtilis, ATCC11774, 24 h, disc with 1000 µg mL−1 in DMSO, 37 °C. The method, then: (§1) All the synthesized compounds were screened for antibacterial activities using minimum inhibitory concentrations (MIC) and zone of inhibitions against Gram (+)and Gram (−) bacterial strains. ATCC strains of the test microorganism selected for antibacterial assay were Gram-positive bacteria; Staphylococcus aureus ATCC 25923, Bacillus subtilus ATCC 11774, and Gram-negative bacteria; Escherichia coli ATCC 10536. The bacterial strains’ stock cultures were kept in Nutrient agar (Oxoid, UK) at 4 °C and inocula were prepared by transferring several single colonies of microbes to a sterile Mueller Hinton broth. The bacterial cell suspension was mixed until homogeneity to give a final density of 5 × 10^5 cfu/mL
(§2) Preliminary screenings of synthesized compounds were conducted on agar plates using the disc diffusion method. The plates were prepared using Mueller–Hinton agar following the autoclave process (121 °C for 30 min). After cooling, the plates were inoculated with the suspension of microorganisms (S. aureus, B. subtilis and E. coli). The paper discs impregnated with the test compounds (1000 µg mL^−1 in dimethyl sulfoxide) were placed on the solidified medium and incubated at 37 °C for 24 hours before recording the zone of inhibition in millimeters.

The test system of data set [2] is Escherichia coli ATCC 10536. The data set is described as follows: Paper disc diffusion, zone of inhibition. The data set is classed as cell-based. Conditions: ATCC10536, disc with 1000 µg mL−1 in DMSO, 37 °C, 24 h. As for the experimental part: as §1, §2
Data set [3] concerns Staphylococcus aureus ATCC 25923. The data set is described as follows: Paper disc diffusion, zone of inhibition. The format is cell-based. Conditions: disc with 1000 µg mL−1 in DMSO, 37 °C; for zone of inhibition at 1000 µg/mL: Staphylococcus aureus, ATCC25923, 24 h. The method, then: as §1, §2
In another data set the test system is B. subtilis ATCC 11774. Kind of data set: Tetrazolium (MTT) microplate assay of minimum inhibitory concentration. Conditions: Bacillus subtilis, ATCC11774. The format is cell-based. The method, then:
as §1
(§3) The minimum inhibitory concentrations of test microorganisms and reference material were determined using the tetrazolium microplate assay method. The assay was performed using a 96-well clear microtiter plate. Freshly harvested bacterial cell and fungal cell suspensions were seeded at 5 × 10^5 cfu/mL in each well of the 96-well plate. Different concentrations, 500 to 10 µg/mL, of the test compounds were diluted in series with Muller–Hinton broth. A volume of 200 µL of each concentration was added in triplicate to the wells and the plates were then incubated for 18–24 h at 37 °C ± 0.5. After incubation, in each well, 50 µL of 3-(4, 5-dimethylthiazol-2-yl)-2, 5-diphenyltetrazolium bromide MTT, having a concentration of 0.2 mg/mL, was added and the plate was incubated at 37 °C for 30 min. An appropriate solvent blank (DMSO) was included as the negative control and the bacterial suspension was included as the positive control. The absorbance was measured at 570 nm with a reference wavelength of 650 nm by adding DMSO using a spectrophotometer and the percentage reduction of the dye (indicating the bacterial growth inhibition) was calculated.

The subject of another data set is E. coli ATCC 10536. The data set is described as above. The format is cell-based. The following applies: Escherichia coli, ATCC10536. The method, then:
as §1, §3

Another data set deals with S. aureus ATCC 25923. The description is as above. The data set is classed as cell-based. Conditions: Staphylococcus aureus, ATCC25923. The method, then: as §1, §3
Data set [4] has as its system Artemia salina (brine shrimp) nauplii. Kind of data set: Brine shrimp lethality bioassay. The format is in vivo. Conditions: 24 h, concentration not given. The method, then: The cytotoxicities of synthesized hydrazones were recorded by employing an in vitro brine shrimp lethality bioassay technique. The eggs of Artemia salina (brine shrimp) were allowed to incubate at 30 °C for 48 h under a light and dark cycle using artificial sea water before subjecting them to the sample solutions. The hatched larvae (nauplii) were collected with using a Pasteur pipette and were transferred to freshly prepared sea water (commercial salt and double-distilled water). The stock solutions of each compound were prepared at 500 µg/mL concentration in DMSO and sea water at 1:1, and further serial dilutions of 25, 50, 100, 200 and 300 µg/mL were prepared using sea water. Using a 2mL volume from each dilution, sea water containing 10 nauplii was added to a test tube and incubated for 24 h. A solvent mixture with nauplii containing no test compound was used as the control. After due time, the number of nauplii that survived was determined using a magnifying glass. The experiment was performed in triplicate and the median lethal concentration (LC50) ± SEM was calculated using regression analysis.

Structures are written as SMILES. Values after ≈ are worked out from the molar mass of the structure shown.

The record followed here is paper PMC9571093, “Synthesis and Characterization of Novel Hydrazone Derivatives of Isonicotinic Hydrazide and Their Evaluation for Antibacterial and Cytotoxic Potential” (Molecules, 2022).

In data set [1], `COc1cc(/C=N/NC(=O)c2ccncc2)ccc1OCC(=O)OC(C)(C)C` [NH1, Tert-butyl (E)-2-(4-((2-Isonicotinoylhydrazineylidene)methyl)-2-methoxyphenoxy) Acetate] registered a zone of inhibition at 1000 µg/mL of 14 mm. In data set [2], this compound registered a zone of inhibition at 1000 µg/mL of 25 mm. This compound yielded a zone of inhibition at 1000 µg/mL in data set [3] of 24 mm. Moreover, the “Zone of Inhibition” value in data set [3] (24 h) came out at 20 mm. In addition, in the data set with B. subtilis ATCC 11774, the inhibition at 50 µg/mL was 5 ± 0.3%, the inhibition at 100 µg/mL turned out to be 26 ± 0.3%, the inhibition at 200 µg/mL came to 44 ± 0.4% and the inhibition at 300 µg/mL is 60 ± 0.5%. The inhibition at 400 µg/mL in the data set on B. subtilis ATCC 11774 amounted to 75 ± 0.5%. In the data set on E. coli ATCC 10536, this compound had an inhibition at 25 µg/mL of 9 ± 0.5%, an inhibition at 50 µg/mL of 18 ± 0.5%, an inhibition at 100 µg/mL of 40 ± 0.4% and an inhibition at 200 µg/mL of 60 ± 0.5%. In the data set on E. coli ATCC 10536, this compound came in with an inhibition at 300 µg/mL of 79 ± 1%. Besides, in the data set on S. aureus ATCC 25923, the inhibition at 50 µg/mL is 10 ± 0.6%, testing at 100 µg/mL gave an inhibition of 25 ± 0.7%, 200 µg/mL produced 55 ± 1% inhibition and the inhibition at 300 µg/mL was 63 ± 1%. This compound showed an inhibition at 400 µg/mL in the data set on S. aureus ATCC 25923 of 69 ± 2%. In the data set with S. aureus ATCC 25923 (500 µg/mL), this compound had an inhibition at 500 µg/mL of 80 ± 1.5%.

In turn, `CCCOc1ccc(/C=N/NC(=O)c2ccncc2)cc1OC` [NH5, (E)-N′-(3-Methoxy-4-propoxybenzylidene) isonicotinohydrazide] showed a zone of inhibition at 1000 µg/mL in data set [1] of 25 mm. In addition, the zone of inhibition at 1000 µg/mL in data set [2] is 24 mm. In data set [3], this compound displayed a zone of inhibition at 1000 µg/mL of 22 mm. In addition, in the data set with B. subtilis ATCC 11774, testing at 50 µg/mL gave an inhibition of 10 ± 0.5%, testing at 100 µg/mL gave an inhibition of 26 ± 0.5%, 200 µg/mL produced 53 ± 0.6% inhibition and the inhibition at 300 µg/mL stood at 73 ± 0.8%. In addition, in the data set with E. coli ATCC 10536, the inhibition at 25 µg/mL is 10 ± 0.6%, the inhibition at 50 µg/mL is 18 ± 0.6%, the inhibition at 100 µg/mL amounted to 34 ± 0.3% and 200 µg/mL produced 58 ± 0.6% inhibition. Also, in the data set with E. coli ATCC 10536, testing at 300 µg/mL gave an inhibition of 79 ± 0.8%. Also, in the data set on S. aureus ATCC 25923, the inhibition at 25 µg/mL is 5 ± 0.4%, 50 µg/mL produced 12 ± 0.4% inhibition, the inhibition at 100 µg/mL amounted to 35 ± 0.7% and the inhibition at 200 µg/mL stood at 58 ± 1.1%. In the data set on S. aureus ATCC 25923, the inhibition at 300 µg/mL is 77 ± 1.5%. For the same compound, in data set [4], the minimum survival percentage amounted to 36.10 ± 3.45%.

Regarding `CC(C)(C)OC(=O)COc1ccc(/C=N/NC(=O)c2ccncc2)cc1` [NH2, Tert-butyl (E)-2-(4-((2-Isonicotinoylhydrazineylidene)methyl)phenoxy) Acetate], in data set [1], the zone of inhibition at 1000 µg/mL was determined as 14 mm. Also, the zone of inhibition at 1000 µg/mL in data set [2] amounted to 14 mm. Also, in data set [3], the zone of inhibition at 1000 µg/mL worked out at 15 mm. In the data set with B. subtilis ATCC 11774, the inhibition at 25 µg/mL was 4 ± 0.2%, at 50 µg/mL the inhibition was 12 ± 0.3%, the inhibition at 100 µg/mL is 22 ± 0.3% and 200 µg/mL produced 44 ± 0.5% inhibition. In the data set on B. subtilis ATCC 11774, this compound showed an inhibition at 300 µg/mL of 60 ± 0.5% and an inhibition at 400 µg/mL of 81 ± 0.6%. Further, in the data set with E. coli ATCC 10536, testing at 100 µg/mL gave an inhibition of 10 ± 0.3%, the inhibition at 200 µg/mL worked out at 25 ± 0.3% and the inhibition at 300 µg/mL amounted to 55 ± 0.5%. The compound also gave an inhibition at 400 µg/mL in the data set with E. coli ATCC 10536 (400 µg/mL) of 70 ± 0.3%. In the data set with S. aureus ATCC 25923, this compound showed an inhibition at 25 µg/mL of 11 ± 1%, an inhibition at 50 µg/mL of 21 ± 1.2%, an inhibition at 100 µg/mL of 42 ± 2% and an inhibition at 200 µg/mL of 50 ± 2%. In the data set with S. aureus ATCC 25923, this compound registered an inhibition at 300 µg/mL of 63 ± 1.5% and an inhibition at 400 µg/mL of 74 ± 2%.

With `NCC[C@H](O)C(=O)N[C@@H]1C[C@H](N)[C@@H](O[C@H]2O[C@H](CN)[C@@H](O)[C@H](O)[C@H]2O)[C@H](O)[C@H]1O[C@H]1O[C@H](CO)[C@@H](O)[C@H](N)[C@H]1O` [Amikacin, reference compound], the zone of inhibition at 1000 µg/mL in data set [1] worked out at 30 mm; in data set [2] it was 38 mm; in data set [3] it was 24 mm.

Take `CC1(C)S[C@@H]2[C@H](NC(=O)[C@H](N)c3ccc(O)cc3)C(=O)N2[C@H]1C(=O)O` [Amoxicillin, reference compound]: in the data set with E. coli ATCC 10536, the inhibition at 25 µg/mL was 40 ± 0.5%, the inhibition at 50 µg/mL came to 66 ± 0.5%, the inhibition at 100 µg/mL was 85 ± 0.6% and 200 µg/mL produced 96 ± 1% inhibition. For the same compound, 50 µg/mL (≈ 137 µM) corresponded to half-maximal inhibition in the data set with E. coli ATCC 10536 (E. coli, concentration inhibiting 66 ± 0.5%) (IC50).

In the data set on B. subtilis ATCC 11774, `CO/N=C(\C(=O)N[C@@H]1C(=O)N2C(C(=O)O)=C(CSc3nc(=O)c(=O)[nH]n3C)CS[C@H]12)c1csc(N)n1` [Ceftriaxone, reference compound] registered an inhibition at 25 µg/mL of 40 ± 0.5%, an inhibition at 50 µg/mL of 55 ± 0.7%, an inhibition at 100 µg/mL of 79 ± 1.2% and an inhibition at 200 µg/mL of 92 ± 1.2%. The same compound gave an IC50 in the data set with B. subtilis ATCC 11774 (B. subtilis, concentration inhibiting 55 ± 0.7%) of 50 µg/mL (≈ 90.2 µM). In addition, in the data set on S. aureus ATCC 25923, 25 µg/mL produced 30 ± 0.8% inhibition, testing at 50 µg/mL gave an inhibition of 55 ± 0.3%, the inhibition at 100 µg/mL was determined as 80 ± 1.2% and at 200 µg/mL the inhibition was 96 ± 1%. In the data set with S. aureus ATCC 25923 (S. aureus, concentration inhibiting 55 ± 0.3%, read-out: IC50), the minimum inhibitory concentration is 50 µg/mL (≈ 90.2 µM).

For `CC(C)=CCOc1ccc(/C=N/NC(=O)c2ccncc2)cc1` [NH4, (E)-N′-(4-((3-Methylbut-2-en-1-yl)oxy)benzylidene)isonicotinohydrazide], the zone of inhibition at 1000 µg/mL in data set [1] stood at 23 mm. Moreover, in data set [2], the zone of inhibition at 1000 µg/mL turned out to be 21 mm. In data set [3], this compound showed a zone of inhibition at 1000 µg/mL of 20 mm. In the data set with B. subtilis ATCC 11774, the inhibition at 25 µg/mL is 10 ± 0.7%, the inhibition at 50 µg/mL was found to be 18 ± 0.6%, the inhibition at 100 µg/mL was 29 ± 0.8% and testing at 200 µg/mL gave an inhibition of 50 ± 1.1%. In the data set with B. subtilis ATCC 11774, the inhibition at 300 µg/mL was determined as 68 ± 1% and the inhibition at 400 µg/mL was determined as 77 ± 0.8%. In the data set on E. coli ATCC 10536, this compound displayed an inhibition at 50 µg/mL of 5 ± 0.5%, an inhibition at 100 µg/mL of 25 ± 0.5%, an inhibition at 200 µg/mL of 54 ± 0.4% and an inhibition at 300 µg/mL of 75 ± 0.8%. Further, in the data set with S. aureus ATCC 25923, the inhibition at 25 µg/mL was found to be 16 ± 0.5%, testing at 50 µg/mL gave an inhibition of 24 ± 1%, testing at 100 µg/mL gave an inhibition of 38 ± 1.5% and testing at 200 µg/mL gave an inhibition of 55 ± 0.9%. In addition, in the data set on S. aureus ATCC 25923, the inhibition at 300 µg/mL was 71 ± 2% and 400 µg/mL produced 89 ± 1.5% inhibition.
